Results reported in US9730909B2, “Methods for targeting cancer stem cells” (BOSTON BIOMEDICAL, INC, priority 2010, dated 2017).
“And” between values parts separate entries of the source, which are not always exact repeats. Identical values can stand only once. “Also recorded” adds a separate entry of the source.

Assays:
[1] = Toxicity (body weight, deaths) in xenograft-bearing immunosuppressed mice; format: in vivo; details: for mice died during the treatment: about 90% pure
Protocol: All regimens were administered daily (qd). Body weights were evaluated periodically during treatment. Each point represents the mean±SEM of eight tumors. […] All regimens were administered daily (qd). Body weights were evaluated periodically during treatment. Each point represents the mean±SEM of eight tumors.
(§1) Daily examinations into the health status of each animal were also conducted. Body weights were checked every three days. Food and water was supplied daily according to the animal husbandry procedures of the facility. Treatment producing >20% lethality and or >20% net body weight loss were considered toxic. Results are expressed as mean tumor volume (mm^3)±SE. P Values <0.05 are considered to be statistically relevant.

advanced cancers = assay: Progression free survival of patients; format: in vivo, human
Text: FIG. 22 is a graph that illustrates the comparison of progression free survival of colorectal cancer patients treated with Compound 1. The progression free survival (PFS) of evaluable patients with colorectal cancer treated with Compound 1 was compared against historical PFS data for best supportive care in patients with colorectal cancer.
FIG. 23 is a graph that illustrates the comparison of progression free survival (PFS) versus pharmacokinetic exposure. The PFS of evaluable patients receiving Compound 1 was compared against Compound 1 exposure above or below 1.6 uM for at least 4 hours.

advanced solid tumors = assay: Phase I clinical trial: tumor response (RECIST 1.1); format: in vivo, human
Text: Of the 42 patients dosed, 24 were evaluable for tumor response as of Feb. 7, 2011; 16 (16/24 evaluable patients) achieved stable disease (8 to 75+ weeks).

[2] = system: cancer cells and normal cells; details: literature reports (Hirai 1999; Takano 2009); cited from earlier work
[3] = system: cancer cells and normal cells; assay: Exposure concentration/time and selective killing of cancer versus normal cells; format: cell-based
Protocol: The studies described herein discovered counter-intuitively that cancer cells and cancer stem cells requires much shorter exposure than normal cells to be killed by Compound 1. Normal cells can tolerate up to 24 hours of exposure to Compound 1. Furthermore, the studies here discovered that normal cells can recover after a short period of no-drug exposure, while cancer cells cannot recover once they are exposed to a certain concentration of the Compound 1 for at least 2 hours. Based on these studies, a special pharmacokinetic exposure [termed selective pharmacokinetic profile (SPP), or preferred pharmacokinetic profile (PPP), which is used interchangeably in this publication] was designed for Compound 1 using the data shown below in Table 14 for achieving selective antitumor activity in patients (FIG. 24).
The selective activity of Compound 1 in killing cancer cells and sparing normal cells is represented by the data in Table 14 and illustrated in FIG. 24.

[4] = Phase I clinical trial: safety and tolerability; format: in vivo, human
Text: Grade 3 or greater events include: fatigue and diarrhea.

[5] = system: FaDu human head and neck cancer; assay: Subcutaneous FaDu human head and neck cancer xenograft in immunosuppressed mice; format: in vivo
Protocol: In the studies shown in FIG. 8, immunosuppressed mice with established subcutaneous FaDu human head and neck cancer were given indicated amount of hand grounded Compound 1 with Crystal Form 1, or vehicle control orally (po). Compound 1 was formulated in […]™. All regimens were administered daily (qd). Tumor sizes were evaluated periodically during treatment.
In the study shown in FIG. 9, immunosuppressed mice with established subcutaneous FaDu human head and neck cancer were given 100 mg/kg of micronized Compound 1 produced with the synthetic process described in FIGS. 5A and 5B (first crop), or vehicle control orally (po). Compound 1 was formulated in […]™. All regimens were administered daily (qd). Tumor sizes were evaluated periodically during treatment. Form 2 has been successfully manufactured by a current good manufacturing practice (cGMP) process and received approval from the FDA and Health Canada to be used in clinical trials.
Form 3 can only be generated from Form 1 using a specially designed slurry process described herein. […] In the study shown in FIG. 10, immunosuppressed mice with established subcutaneous FaDu human head and neck cancer were given 200 mg/kg of Compound 1 with hand grounded Crystal Form 1 or Form 3, or vehicle control orally (po). Compound 1 was formulated in gelucire. All regimens were administered daily (qd). Tumor sizes were evaluated periodically during treatment. This polymorph has been successfully manufactured by a cGMP process and received approval from FDA and Health Canada to be used in clinical trials.
The anti-tumor activity of particles of Compound 1 with different particle size ranges is illustrated in FIG. 15, and the pharmacokinetic data for particles of Compound 1 with different particle size ranges is illustrated in FIGS. 16-18. In the study shown in FIG. 15, immunosuppressed mice with established subcutaneous FaDu human head and neck cancer were given indicated amount of Compound 1 with indicated particle size, or vehicle control orally (po). All regimens were administered daily (qd). Tumor size was evaluated periodically.
In an experiment, a formulation of Compound 1 particles sieved to 160 micron was tested in the model of immunosuppressed mice with established subcutaneous xenograft FaDu human head and neck cancer. The pharmaceutical composition was formulated as 80 mg/ml in 9% Gelucire, 20% Vitamin E TPGS (Table 3). […] All regimens were administered daily (qd).
In an experiment, Compound 1 crystals were milled to a median particle size of about 20 micron. […] All regimens were administered daily (qd).
FaDu human head and neck cancer cells were inoculated subcutaneously into female athymic nude mice (6×10^6 cells/mouse) and allowed to form palpable tumors. When the tumors reached approximately 100 mm^3, the animals were treated orally (po) with Compound 1 at 100 mg/kg or vehicle control daily. Compound 1 was formulated at 10 mg/ml in 20% gelucire. Tumors and bodyweights were measured throughout treatment (FIG. 15).
as §1
Male or female athymic nude mice 4-5 weeks (Charles River Laboratories, Wilmington, Mass.), were acclimated to the animal housing facility for at least 1 week before study initiation. […]

[6] = Phase I clinical trial: plasma pharmacokinetics; format: in vivo, human
Protocol: A cycle consists of twice-daily oral administration of the compound for 4 weeks. Cycles were repeated every 4 weeks (28 days) until progression of disease, unacceptable toxicity, or another discontinuation criterion is met. The dose escalation trial was conducted as open label and multicenter trial. A modified Simon accelerated titration scheme was used for dose escalation.
The primary objective of the trial was to determine the safety, tolerability, and recommended phase II dose (RP2D). The secondary objectives of the trial were to determine the pharmacokinetic profile of the compound, pharmacodynamics of the compound, and preliminary antitumor activity of the compound.

[7] = Concentration in patient urine; format: in vivo, human; details: patient 0001, 20 mg daily administration
[8] = Pharmacokinetics in mice of 2, 20, 150 micron particle size formulations; format: in vivo; details: particle size 125-150 micron vs 2 and 20 micron, 100 mg/kg oral, 20% Gelucire 44/14, 1% Tween 80
Protocol: In an experiment, micronized Compound 1 prepared in step 6 of Example 2 with a mean particle size of 2 micron, 20 microns, 150 microns were formulated as suspensions in 20% Gelucire 44/14 and 1% Tween 80 and administered orally to mice at 100 mg/kg. Each time point represents the average of 3 mice (FIG. 16).

[9] = particle size less than 5 micron
[10] = crystal form used in clinical trials

Question: With `CC(=O)c1cc2c(o1)C(=O)c1ccccc1C2=O` [Compound 1, 2-acetylnaphtho[2,3-b]furan-4,9-dione] as the compound, how does the toxicity ([1]; about 90% pure Compound 1, GELUCIRE, po, qd) read?
Answer: Significant toxicity

Question: What about the “mice died during the treatment” value ([1]; mice with FaDu human head and neck cancer (first experiment)) of the same compound?
Answer: 4

Question: And the “mice died during the treatment” value ([1]; mice with MDA-231 human breast cancer (second experiment))?
Answer: 3

Question: What about the tolerability ([1]; higher purity (about 95% or greater), mice with FaDu or MDA-231 xenografts, po, qd) of the same compound?
Answer: well-tolerated and showed no signs of toxicity

Question: And the progression free survival (advanced cancers; blood drug concentration above 1 uM, patients with diverse cancers)?
Answer: increase in progression free survival

Question: And the “progression free survival (PFS)” value (advanced cancers; patients with advanced colorectal cancer refractory to chemotherapy)?
Answer: Prolongation of progression free survival

Question: And the progression free survival (advanced cancers; patients with exposure above 1.6 uM for at least 4 hours)?
Answer: improvement in progression free survival

Question: And the “antitumor activity in a colon cancer lesion in kidney” value (advanced solid tumors; 20 mg QD)?
Answer: signs of potent antitumor activity

Question: What about the “evaluable patients showing no metastatic tumors” value (advanced solid tumors; 24 evaluable patients with advanced refractory cancers) of the same compound?
Answer: over 80%

Question: What about the “response of colon cancer metastatic lesion to kidney” value (advanced solid tumors; patient 0001, 20 mg daily) of the same compound?
Answer: complete regression

Question: And the “Best Response, remark (CA 125)” value (advanced solid tumors; patient 0014, total daily dose 400 mg bid, Ovarian cancer)?
Answer: CA 125 normalization

Question: And the “Best Response, remark (CEA)” value (advanced solid tumors; patient 0015, total daily dose 400 mg bid, Colon adenocarcinoma)?
Answer: CEA ? >30-50%

Question: What about the “evaluable patients showing SD/MR by RECIST 1.1” value (advanced solid tumors; tumors refractory to chemotherapies) of the same compound?
Answer: 16/24 and 16 out of 24

Question: And the “toxicity to cancer cells versus normal cells” value [2]?
Answer: equally toxic to cancer cells and normal cells

Question: What about the “exposure time tolerated by normal cells” value [3] of the same compound?
Answer: up to 24 hours

Question: And the selectivity of killing ([3]; about or above 0.2 and 30 μM for about 4 hours up to about 24 hours)?
Answer: selective killing of cancer cells and sparing of normal cells

Question: What about the “maximum tolerated dose (MTD)” value ([4]; dose escalated from 20 mg to 2000 mg/day) of the same compound?
Answer: not reached; also recorded: neither MTD nor RP2D has been reached

Question: And the “Urine Color Change, # of Events” value ([4]; human, in vivo)?
Answer: 2

Question: And the “Urine Color Change, % of Total” value ([4]; human, in vivo)?
Answer: 2.5%

Question: And the “Urine Color Change, # of Events” value ([4]; human, in vivo, 4 weeks)?
Answer: 0

Question: And the efficacy ([5]; median particle size about 20 micron, 200 mg/kg oral daily)?
Answer: weak or moderate efficacy

Question: And the anti-tumor activity ([5]; nanoparticles, D50 about 100 nanometers)?
Answer: reduction of anti-tumor activity

Question: What about the efficacy ([5]; particle size greater than 20 micron) of the same compound?
Answer: no or weak efficacy

Question: What about the anti-tumor activity [5, 9] of the same compound?
Answer: potent anti-tumor activity

Question: And the toxicity [5, 9]?
Answer: no observed toxicity

Question: And the “time plasma concentration was sustained” value ([6]; 320 mg/day dose level, at a concentration of at least 1.5 μM)?
Answer: over 8 hours

Question: And the “clearance from the blood” value ([6]; human, in vivo, 20 mg)?
Answer: rapidly cleared from the blood

Question: What about the AUC0-24 ([6]; human, in vivo, 320 mg) of the same compound?
Answer: 29.79 µM·h

Question: And the AUC0-24 ([6]; human, in vivo, 800 mg)?
Answer: 26.43 µM·h

Question: What about the AUC0-24 ([6]; human, in vivo, 1400 mg) of the same compound?
Answer: 28.38 µM·h

Question: And the “concentration of the compound in urine” value [7]?
Answer: high concentration

Question: What about the plasma exposure [8] of the same compound?
Answer: lower level of exposure

Question: Which anti-tumor activity ([5]; hand grounded Crystal Form 1 in GELUCIRE, po, qd) does the source give for `CC(=O)c1cc2c(o1)C(=O)c1ccccc1C2=O` [Crystal Form 1, 2-acetyl-4H, 9H-naphtho[2,3-b]furan-4,9-dione] here?
Answer: limited anti-tumor activity; also recorded: low anti-tumor activity

Question: With `CC(=O)c1cc2c(o1)C(=O)c1ccccc1C2=O` [Crystal Form 2, 2-acetyl-4H, 9H-naphtho[2,3-b]furan-4,9-dione] as the compound, how does the “anti-tumor activity in cancer patients” value (advanced solid tumors; [10]) read?
Answer: strong signs of anti-tumor activity

Question: And the anti-tumor activity ([5]; 100 mg/kg micronized (first crop, process of FIGS. 5A-5B) in GELUCIRE, po, qd)?
Answer: potent anti-tumor activity

Question: And the “pharmacokinetics in cancer patients” value [6, 10]?
Answer: desirable pharmacokinetics

Question: With `CC(=O)c1cc2c(o1)C(=O)c1ccccc1C2=O` [Crystal Form 3, 2-acetyl-4H, 9H-naphtho[2,3-b]furan-4,9-dione] as the compound, how does the antitumor activity ([5]; 200 mg/kg hand grounded, in gelucire, po, qd) read?
Answer: potent antitumor activities
